Results published in patent US20240041814A1, “USE OF REAGENT FOR DETECTING RETINOL METABOLITE IN PREPARATION OF TOOL FOR DIAGNOSING AND/OR TREATING PNEUMOCONIOSIS” (Institute of Basic Medical Sciences of Chinese Academy of …, priority 2022, published 2024).

Experiments:
[1] = system: FN-1 and Col-I; assay: Western blot and qPCR of fibrosis factors in mouse lung tissue; type: in vivo; conditions: mice with pneumoconiosis, 10 mg/kg ATRA intragastrically 3 times a week for 4 weeks
Procedure: Male C57BL/6J mice (aged 8-10 weeks and weighing 25-30 g) were selected and housed in an SPF grade laboratory animal room, and the model of pneumoconiosis was constructed by one-time intratracheal instillation of silica (Si); the mice were divided into four groups (n=9): (1) PBS+vehicle group: 40 μL of sterile phosphate-buffered saline (PBS) was administered by intratracheal instillation; two weeks later, corn oil was administered intragastrically 3 times a week, for 4 weeks; (2) PBS+ATRA group: 40 μL of sterile PBS was administered by intratracheal instillation; two weeks later, 10 mg/kg ATRA was administered intragastrically 3 times a week, for 4 weeks; (3) Si+vehicle group: a silica suspension (300 mg/mL, 40 μL) was administered by intratracheal instillation; two weeks later, corn oil was administered intragastrically 3 times a week, for 4 weeks; (4) Si+ATRA group: a silica suspension (300 mg/mL, 40 μL) was administered by intratracheal instillation; two weeks later, 10 mg/kg ATRA was administered intragastrically 3 times a week, for 4 weeks. All mice were sacrificed after 6 weeks, and the corresponding samples were collected for detection. Lung tissue proteins of all mice were extracted. […]

[2] = system: mice with pneumoconiosis; assay: Cardiopulmonary function test (RVSP, lung function IC and Cst); type: in vivo, mouse; conditions: ATRA-treated mice with pneumoconiosis compared with control mice, 10 mg/kg intragastrically 3 times a week for 4 weeks
Procedure: Male C57BL/6J mice (aged 8-10 weeks and weighing 25-30 g) were selected and housed in an SPF grade laboratory animal room, and the model of pneumoconiosis was constructed by one-time intratracheal instillation of silica (Si); the mice were divided into four groups (n=9): (1) PBS+vehicle group: 40 μL of sterile phosphate-buffered saline (PBS) was administered by intratracheal instillation; two weeks later, corn oil was administered intragastrically 3 times a week, for 4 weeks; (2) PBS+ATRA group: 40 μL of sterile PBS was administered by intratracheal instillation; two weeks later, 10 mg/kg ATRA was administered intragastrically 3 times a week, for 4 weeks; (3) Si+vehicle group: a silica suspension (300 mg/mL, 40 μL) was administered by intratracheal instillation; two weeks later, corn oil was administered intragastrically 3 times a week, for 4 weeks; (4) Si+ATRA group: a silica suspension (300 mg/mL, 40 μL) was administered by intratracheal instillation; two weeks later, 10 mg/kg ATRA was administered intragastrically 3 times a week, for 4 weeks. All mice were sacrificed after 6 weeks, and the corresponding samples were collected for detection. An anesthetized mouse was fixed on an experimental bench, and an 8 gauge needle connected with a high-fidelity pressure sensor was inserted into the right ventricle to directly measure the invasive right ventricular systolic pressure (RVSP). The RVSP was recorded and analyzed by a Power Lab data acquisition and analysis system (PL 3504, AD Instruments, Australia). Mouse lung function was detected by a pulmonary function testing system (DSI Buxco, USA). Before experiment, the mouse was anesthetized by intraperitoneal injection of 0.4 mL/100 g 2% pentobarbital, tracheotomy was performed, a trachea cannula was inserted, and a ventilator was connected. […] A statistical analysis was conducted on indexes closely related to lung function changes of pneumoconiosis, including inspiratory capacity (IC) and quasi-static compliance (Cst).

[3] = system: mice with pneumoconiosis; assay: Pathological staining of lung (HE, Szapiel score; Masson, Aschroft score); type: in vivo, mouse; conditions: 10 mg/kg ATRA intragastrically 3 times a week for 4 weeks
Procedure: Male C57BL/6J mice (aged 8-10 weeks and weighing 25-30 g) were selected and housed in an SPF grade laboratory animal room, and the model of pneumoconiosis was constructed by one-time intratracheal instillation of silica (Si); the mice were divided into four groups (n=9): (1) PBS+vehicle group: 40 μL of sterile phosphate-buffered saline (PBS) was administered by intratracheal instillation; two weeks later, corn oil was administered intragastrically 3 times a week, for 4 weeks; (2) PBS+ATRA group: 40 μL of sterile PBS was administered by intratracheal instillation; two weeks later, 10 mg/kg ATRA was administered intragastrically 3 times a week, for 4 weeks; (3) Si+vehicle group: a silica suspension (300 mg/mL, 40 μL) was administered by intratracheal instillation; two weeks later, corn oil was administered intragastrically 3 times a week, for 4 weeks; (4) Si+ATRA group: a silica suspension (300 mg/mL, 40 μL) was administered by intratracheal instillation; two weeks later, 10 mg/kg ATRA was administered intragastrically 3 times a week, for 4 weeks. All mice were sacrificed after 6 weeks, and the corresponding samples were collected for detection. […] For HE staining, inflammation was scored based on Szapiel scores; for Masson staining, the severity of fibrosis was scored by Aschroft scores. The sections were scanned, photographed and counted by a 3D HISTECH digital slide scanner.

[4] = system: IL-1β and IL-6; assay: ELISA of inflammatory factors in mouse BALF; type: in vivo; conditions: mice with pneumoconiosis, 10 mg/kg ATRA intragastrically 3 times a week for 4 weeks
Procedure: Male C57BL/6J mice (aged 8-10 weeks and weighing 25-30 g) were selected and housed in an SPF grade laboratory animal room, and the model of pneumoconiosis was constructed by one-time intratracheal instillation of silica (Si); the mice were divided into four groups (n=9): (1) PBS+vehicle group: 40 μL of sterile phosphate-buffered saline (PBS) was administered by intratracheal instillation; two weeks later, corn oil was administered intragastrically 3 times a week, for 4 weeks; (2) PBS+ATRA group: 40 μL of sterile PBS was administered by intratracheal instillation; two weeks later, 10 mg/kg ATRA was administered intragastrically 3 times a week, for 4 weeks; (3) Si+vehicle group: a silica suspension (300 mg/mL, 40 μL) was administered by intratracheal instillation; two weeks later, corn oil was administered intragastrically 3 times a week, for 4 weeks; (4) Si+ATRA group: a silica suspension (300 mg/mL, 40 μL) was administered by intratracheal instillation; two weeks later, 10 mg/kg ATRA was administered intragastrically 3 times a week, for 4 weeks. All mice were sacrificed after 6 weeks, and the corresponding samples were collected for detection.
Concentrations of inflammatory factors IL-1β and IL-6 in mouse BALF were detected by using ELISA kits.

[5] = system: mice with pneumoconiosis; assay: Mouse model of pneumoconiosis (intratracheal silica) with ATRA treatment, overall outcome; type: in vivo; conditions: 10 mg/kg ATRA intragastrically 3 times a week for 4 weeks

Compound: CC1=C(/C=C/C(C)=C/C=C/C(C)=C/C(=O)O)C(C)(C)CCC1 [ATRA, All-trans retinoic acid]
- level of fibrosis factor Col-I in lung tissue (transcriptional) [1]: reduced levels
- level of fibrosis factor FN-1 in lung tissue (translational and transcriptional) [1]: reduced levels
- inspiratory capacity (IC) [2]: improved to a certain extent
- quasi-static compliance (Cst) [2]: improved to a certain extent
- right ventricular systolic pressure (RVSP) [2]: lowered to a certain extent
- severity of fibrosis (Masson staining) [3]: reduce the severity
- severity of inflammation (HE staining) [3]: reduce the severity
- concentration of IL-1β in BALF [4]: lowered concentrations
- concentration of IL-6 in BALF [4]: lowered concentrations
- cardiopulmonary function, inflammation, and fibrosis [5]: significantly improve
